Results as given in patent publication US20110301146A1 (ONCOTHERAPY SCIENCE, INC., priority 2008, published 2011).

Target: T1, GSK-3beta (Homo sapiens, UniProt P49841)
T1 construct: purchased Invitrogen
Assay: Z'-LYTE kinase assay (FRET, SER/THR 9 peptide)
Assay type: biochemical
Details: 0.04 ng/micro-l GSK-3beta (Invitrogen), 2 micro-M SER/THR 9 peptide, 15 micro-M ATP, 1 hour at room temperature, 1% DMSO
Description: The Z′-LYTE kinase assay kit employs a fluorescence resonance energy transfer (FRET) between two fluorophores, coumarin and fluorescein, attached to each end of a substrate peptide.
For 0% phosphorylation control, ATP was omitted from the reaction mixture. For 100% phosphorylation control, SER/THR 9 phosphopeptide was used in place of the SER/THR 9 peptide. Following 1 hour incubation at room temperature, the reaction was stopped by the addition of half assay volume of development solution and further incubated for 1 hour at room temperature. […] The extent of phosphorylation was determined according to the 0% and 100% phosphorylation control samples using the following equation: […]
IC50 values were calculated by nonlinear four parameter fit using SigmaPlot, version 10.0 (Systat Software, Inc.).

T1 sequence (P49841 whole entry): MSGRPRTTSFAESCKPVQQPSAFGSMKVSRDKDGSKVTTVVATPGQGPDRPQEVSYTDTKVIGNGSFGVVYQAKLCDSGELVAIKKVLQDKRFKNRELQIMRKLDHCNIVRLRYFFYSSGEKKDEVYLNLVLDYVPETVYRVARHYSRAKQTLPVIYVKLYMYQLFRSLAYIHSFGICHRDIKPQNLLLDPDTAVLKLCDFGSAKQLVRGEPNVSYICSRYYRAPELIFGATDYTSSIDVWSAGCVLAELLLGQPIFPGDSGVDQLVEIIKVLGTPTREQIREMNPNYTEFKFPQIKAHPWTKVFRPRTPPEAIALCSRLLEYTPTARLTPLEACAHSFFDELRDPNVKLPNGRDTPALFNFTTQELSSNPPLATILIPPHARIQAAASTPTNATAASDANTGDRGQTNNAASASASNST

Which IC50 does the source give for O=C(NCC1CCCCN1)c1ccc(O)c2[nH]c(C3CC3)nc12 (centres unmarked) [Example 7, 2-Cyclopropyl-4-hydroxy-N-(piperidin-2-ylmethyl)-1H-benzo[d]imidazole-7-carboxamide] here?
The IC50 was 100 nM.

For O=C(N[C@H]1CCCNC1)c1ccc(O)c2[nH]c(-c3ccc(N4CCNCC4)s3)nc12 [Example 57, (S)-7-hydroxy-2-(5-(piperazin-1-yl)thiophen-2-yl)-N-(piperidin-3-yl)-1H-benzo[d]imidazole-4-carboxamide], which IC50 is on record?
The IC50 was 38 nM.
